Experimental data from patent US11685746B2, “Heteroaryl compounds for treating Huntington's disease” (PTC THERAPEUTICS, INC., priority 2018, dated 2023).

Tested on: Endogenous Huntingtin Protein
Assay: Endogenous Huntingtin Protein Assay (MSD plates, MW1 or MAB2166 capture antibody)
Type: cell-based
Conditions: Table 1
Procedure, shortened: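 Endogenous huntingtin was captured overnight at 4° C on wells coated with 1 μg/mL MW1 (polyglutamine-specific) or MAB2166. Detection used rabbit #5656S and then goat anti-rabbit SULFO-TAG, both at 0.25 μg/mL and 1 h at room temperature. Plates were imaged on the MSD system in read buffer T.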

Compound	IC50
CN1CCC2(CC1)CN(c1nc3sc(-c4ncc(-c5cn[nH]c5)c5cc[nH]c45)nc3s1)C2 [Compound 138, 7-[5-(7-methyl-2,7-diazaspiro[3.5]nonan-2-yl)[1,3]thiazolo[5,4-d][1,3]thiazol-2-yl]-4-(1H-pyrazol-4-yl)-1H-pyrrolo[2,3-c]pyridine]	≤ 100 nM
CN(c1nc2sc(-c3ncc(-c4cn[nH]c4)c4cc[nH]c34)nc2s1)C1CCNCC1 [Compound 139, N-methyl-N-(piperidin-4-yl)-5-[4-(1H-pyrazol-4-yl)-1H-pyrrolo[2,3-c]pyridin-7-yl][1,3]thiazolo[5,4-d][1,3]thiazol-2-amine]	≤ 100 nM
CN(c1nc2sc(-n3cnc(-c4cn[nH]c4)cc3=O)nc2s1)C1CC(C)(C)NC(C)(C)C1 [Compound 140, 3-{5-[methyl(2,2,6,6-tetramethylpiperidin-4-yl)amino][1,3]thiazolo[5,4-d][1,3]thiazol-2-yl}-6-(1H-pyrazol-4-yl)pyrimidin-4(3H)-one]	≤ 100 nM
CN(c1nc2sc(-c3ccc(-c4cn[nH]c4)cc3)nc2s1)[C@@H]1C[C@H]2CC[C@@H](C1)N2 [Compound 141, N-[(1R,3s,5S)-8-azabicyclo[3.2.1]octan-3-yl]-N-methyl-5-[4-(1H-pyrazol-4-yl)phenyl][1,3]thiazolo[5,4-d][1,3]thiazol-2-amine]	≤ 100 nM
CN(c1nc2sc(-c3cnc(-c4cn[nH]c4)cn3)nc2s1)[C@H]1C[C@]2(C)CC[C@](C)(C1)N2 [Compound 142, N-[(1R,3s,5S)-1,5-dimethyl-8-azabicyclo[3.2.1]octan-3-yl]-N-methyl-5-[5-(1H-pyrazol-4-yl)pyrazin-2-yl][1,3]thiazolo[5,4-d][1,3]thiazol-2-amine]	≤ 100 nM
CC1(C)CC(Oc2nc3sc(-c4cnc(-c5cn[nH]c5)cn4)nc3s2)CC(C)(C)N1 [Compound 143, 2-[5-(1H-pyrazol-4-yl)pyrazin-2-yl]-5-[(2,2,6,6-tetramethylpiperidin-4-yl)oxy][1,3]thiazolo[5,4-d][1,3]thiazole]	≤ 100 nM
CN(c1nc2sc(-n3cnc(-c4cn[nH]c4)cc3=O)nc2s1)[C@H]1C[C@]2(C)CC[C@](C)(C1)N2 [Compound 144, 3-(5-{[(1R,3s,5S)-1,5-dimethyl-8-azabicyclo[3.2.1]octan-3-yl](methyl)amino}[1,3]thiazolo[5,4-d][1,3]thiazol-2-yl)-6-(1H-pyrazol-4-yl)pyrimidin-4(3H)-one]	≤ 100 nM
CN(c1nc2sc(-c3ncc(-c4cn[nH]c4)cc3O)nc2s1)C1CCN2CCCC2C1 (stereo not drawn) [Compound 145, 2-{5-[methyl(octahydroindolizin-7-yl)amino][1,3]thiazolo[5,4-d][1,3]thiazol-2-yl}-5-(1H-pyrazol-4-yl)pyridin-3-ol]	≤ 100 nM
CN(c1nc2sc(-n3ccc(-c4cn[nH]c4)cc3=O)nc2s1)[C@H]1C[C@]2(C)CC[C@](C)(C1)N2 [Compound 146, 1-(5-{[(1R,3s,5S)-1,5-dimethyl-8-azabicyclo[3.2.1]octan-3-yl](methyl)amino}[1,3]thiazolo[5,4-d][1,3]thiazol-2-yl)-4-(1H-pyrazol-4-yl)pyridin-2(1H)-one]	≤ 100 nM
CC(C)(C)NC1CCN(c2nc3sc(-c4ccc(-c5cn[nH]c5)cc4O)nc3s2)C1 (stereo not drawn) [Compound 147, 2-{5-[3-(tert-butylamino)pyrrolidin-1-yl][1,3]thiazolo[5,4-d][1,3]thiazol-2-yl}-5-(1H-pyrazol-4-yl)phenol]	1000 to 3000 nM
CN(c1nc2sc(-n3ccc(-n4cc(F)cn4)cc3=O)nc2s1)[C@H]1C[C@]2(C)CC[C@](C)(C1)N2 [Compound 148, 1-(5-{[(1R,3s,5S)-1,5-dimethyl-8-azabicyclo[3.2.1]octan-3-yl](methyl)amino}[1,3]thiazolo[5,4-d][1,3]thiazol-2-yl)-4-(4-fluoro-1H-pyrazol-1-yl)pyridin-2(1H)-one]	≤ 100 nM
CN(c1nc2sc(-n3ccc(-n4cc(F)cn4)cc3=O)nc2s1)[C@@H]1C[C@H]2CC[C@@H](C1)N2 [Compound 149, 1-(5-{[(1R,3s,5S)-8-azabicyclo[3.2.1]octan-3-yl](methyl)amino}[1,3]thiazolo[5,4-d][1,3]thiazol-2-yl)-4-(4-fluoro-1H-pyrazol-1-yl)pyridin-2(1H)-one]	≤ 100 nM
CC(C)(C)NC1CCN(c2nc3sc(-c4ncc(-c5cn[nH]c5)cn4)nc3s2)C1 (stereo not drawn) [Compound 150, N-tert-butyl-1-{5-[5-(1H-pyrazol-4-yl)pyrimidin-2-yl][1,3]thiazolo[5,4-d][1,3]thiazol-2-yl}pyrrolidin-3-amine]	1000 to 3000 nM
CC(C)(C)NC1CCN(c2nc3sc(-n4ccc(-c5cn[nH]c5)cc4=O)nc3s2)C1 (stereo not drawn) [Compound 151, 1-{5-[3-(tert-butylamino)pyrrolidin-1-yl][1,3]thiazolo[5,4-d][1,3]thiazol-2-yl}-4-(1H-pyrazol-4-yl)pyridin-2(1H)-one]	100 to 500 nM
CC1CC(N(C)c2nc3sc(-c4ncc(-c5cn[nH]c5)c5cc[nH]c45)nc3s2)CCN1C (stereo not drawn) [Compound 152, N-(1,2-dimethylpiperidin-4-yl)-N-methyl-5-[4-(1H-pyrazol-4-yl)-1H-pyrrolo[2,3-c]pyridin-7-yl][1,3]thiazolo[5,4-d][1,3]thiazol-2-amine]	≤ 100 nM
CN(c1nc2sc(-n3cnc(-c4cn[nH]c4)cc3=O)nc2s1)[C@@H]1C[C@H]2CC[C@@H](C1)N2C [Compound 153, 3-(5-{methyl[(1R,3s,5S)-8-methyl-8-azabicyclo[3.2.1]octan-3-yl]amino}[1,3]thiazolo[5,4-d][1,3]thiazol-2-yl)-6-(1H-pyrazol-4-yl)pyrimidin-4(3H)-one]	≤ 100 nM
CN(c1nc2sc(-c3ncc(-c4cn[nH]c4)c4cc[nH]c34)nc2s1)[C@H]1C[C@]2(C)CC[C@](C)(C1)N2 [Compound 154, N-[(1R,3s,5S)-1,5-dimethyl-8-azabicyclo[3.2.1]octan-3-yl]-N-methyl-5-[4-(1H-pyrazol-4-yl)-1H-pyrrolo[2,3-c]pyridin-7-yl][1,3]thiazolo[5,4-d][1,3]thiazol-2-amine]	≤ 100 nM
CN(c1nc2sc(-n3ccc(-c4cn[nH]c4)cc3=O)nc2s1)[C@@H]1CCCNC1 [Compound 155, 1-(5-{methyl[(3R)-piperidin-3-yl]amino}[1,3]thiazolo[5,4-d][1,3]thiazol-2-yl)-4-(1H-pyrazol-4-yl)pyridin-2(1H)-one]	100 to 500 nM
CC1(C)CC(Oc2nc3sc(-n4ccc(-c5cn[nH]c5)cc4=O)nc3s2)CC(C)(C)N1 [Compound 156, 4-(1H-pyrazol-4-yl)-1-{5-[(2,2,6,6-tetramethylpiperidin-4-yl)oxy][1,3]thiazolo[5,4-d][1,3]thiazol-2-yl}pyridin-2(1H)-one]	≤ 100 nM
CC1CC(N(C)c2nc3sc(-n4ccc5ccc(O)nc54)nc3s2)CCN1C (stereo not drawn) [Compound 157, 1-{5-[(1,2-dimethylpiperidin-4-yl)(methyl)amino][1,3]thiazolo[5,4-d][1,3]thiazol-2-yl]-1H-pyrrolo[2,3-b]pyridin-6-ol]	100 to 500 nM
CN(c1nc2sc(-c3cc(F)c(-c4cn[nH]c4)cc3F)nc2s1)[C@@H]1C[C@H]2CC[C@@H](C1)N2 [Compound 158, N-[(1R,3s,5S)-8-azabicyclo[3.2.1]octan-3-yl]-5-[2,5-difluoro-4-(1H-pyrazol-4-yl)phenyl]-N-methyl[1,3]thiazolo[5,4-d][1,3]thiazol-2-amine]	≤ 100 nM
